The source of these data is publication PMC12670396, “Crizotinib- or Ceritinib-Conjugated Platinum(IV) Prodrugs As Potent Multiaction Agents Inducing Antiproliferative Effects in 2D and 3D Cancer Cell Models” (Journal of Medicinal Chemistry, 2025).

As usually defined, the IC50 is the point on the concentration scale where inhibition reaches its midpoint.

For one data set, the system named is HCT116. The experiment in a line: MTT cytotoxic/antiproliferative activity, 72 h. The class given is cell-based, human. The note with it: Homo sapiens, HCT-116; HCT116, MTT, 72 h.
Data set [1] relates to panel of six cancer cell lines. The experiment in a line: MTT, panel of six cancer cell lines (average, ranges). The format is cell-based, human. The note with it: Homo sapiens; average over six cancer cell lines; read-out: av cancer (average IC50 in cancer cells). The protocol:
(§1) A panel of six cancer cell lines was used to evaluate the cytotoxic potential of the investigated compounds.
(§2) Cytotoxicity in hepatocyte-like cells (HLC). STEMdiff Hepatocyte Kit was used to generate HLC from human pluripotent stem cells. Cytotoxicity of several of the tested compounds in HLC was evaluated using the sulphorhodamine B assay.

The next data set has as its system CT26 cell line. The experiment in a line: MTT cytotoxic/antiproliferative activity, 72 h. The class given is cell-based, murine. Conditions: Mus musculus.
A further data set relates to RD. Briefly: MTT cytotoxic/antiproliferative activity, 72 h. The class given is cell-based, human. Conditions: Homo sapiens, MTT, 72 h.
In a further data set the test system is IMR-90. The experiment in a line: MTT cytotoxicity in noncancerous cells, 72 h. Conditions: Homo sapiens, IMR-90, MTT. The format is cell-based, human. The protocol: (§3) Growth inhibition activity in cancer cell lines was compared with the activity to inhibit the proliferation of normal (noncancerous) cells, namely MRC-5, IMR-90, hTERT-HPNE, and MCF10A cells. Selectivity indexes (SI) were calculated as (IC50 in noncancerous cells)/(average IC50 in cancer cells). […] We further assessed the toxicity of several of the compounds in hepatocyte-like cells (HLC) generated from human pluripotent cells.
as §2

The next data set relates to MCF10A. Briefly: MTT cytotoxicity in noncancerous cells, 72 h. Conditions: Homo sapiens, MCF-10A. The class given is cell-based, human. The protocol: as §3, §2
For the next data set, the system named is MRC-5. The experiment in a line: MTT cytotoxicity in noncancerous cells, 72 h. The class given is cell-based, human. The note with it: Homo sapiens, MRC5, MRC-5, MTT. The protocol:
as §3, §2

Another data set relates to hTERT-HPNE. Briefly: MTT cytotoxicity in noncancerous cells, 72 h. The format is cell-based, human. Conditions: Homo sapiens. On the procedure:
as §3, §2

For another data set, the system named is MDA-MB-231. Briefly: MTT cytotoxic/antiproliferative activity, 72 h. The class given is cell-based, human. The note with it: Homo sapiens; MDA-MB-231, MTT, 72 h.
In another data set the test system is CHOK1. The experiment in a line: MTT cytotoxicity in NER-proficient cells, 72 h. The format is cell-based, Chinese hamster. Conditions: Cricetulus griseus, CHO-K1.
Description: The cytotoxicity assay was also employed to determine whether DNA damage might be involved in the mechanism of action of the tested compounds. The Chinese hamster ovary MMC2 cell line harbors the ERCC3/XPB mutation, which renders it deficient in nucleotide excision repair (NER), whereas the parent line CHOK1 is proficient in this repair process. Thus, the MMC2 line is often more sensitive to agents causing DNA damage, especially NER-reparable DNA damage, than CHOK1. […] Phosphorylation of H2AX is a commonly used marker of DNA damage.
as §2

The test system of the next data set is U87-MG. The experiment in a line: MTT cytotoxic/antiproliferative activity, 72 h. The class given is cell-based, human. The note with it: Homo sapiens, U-87 MG, MTT, 72 h. On the procedure: as §1, §2
The next data set concerns NCI-H2228. The experiment in a line: MTT cytotoxic/antiproliferative activity, 72 h. The class given is cell-based, human. Conditions: Homo sapiens; NCI-H2228, MTT, 72 h.
A further data set has as its target T1, ALK (Homo sapiens, UniProt Q9HC35+Q9UM73).
T1 construct: Western blot detection of the ALK phosphorylation state in lysates of NCI-H2228 cells exposed to the tested compounds; endogenous in cells; host or cells: NCI-H2228
The experiment in a line: Western blot of ALK phosphorylation state. The note with it: NCI-H2228 lysates, IC50 concentrations, 24 h. The format is cell-based. On the procedure:
(§4) Whereas the signals of pALK and pMET are decreased in the presence of the tested compounds, the overall amount of ALK and MET is not markedly changed.
(§5) NCI-H2228 cells were seeded in 6-well plates at a density of 2 × 10^5 cells/well and incubated overnight. […] The cells were then harvested and lysed using RIPA lysis buffer supplemented with protease and phosphatase inhibitors as recommended by the manufacturer. Protein extracts were resolved with SDS-PAGE, transferred to a PVDF membrane, and the respective proteins were detected with specific antibodies (anti-phosphoALK, anti-ALK, anti-phosphoMET, anti-MET, and anti-GADPH) and HRP-conjugated secondary antibodies. The signals were obtained with SignalFire ECL Reagent and recorded with an Amersham680 reader.

Another data set relates to A549. The experiment in a line: MTT cytotoxic/antiproliferative activity, 72 h. The note with it: Homo sapiens; A549, MTT, 72 h. The format is cell-based, human.
A further data set addresses T2, MET (Homo sapiens, UniProt P08581).
T2 construct: Western blot analysis of the phosphorylation state of ALK and MET; endogenous in cells; host or cells: NCI-H2228
Briefly: Western blot of MET phosphorylation state. The format is cell-based. Conditions: NCI-H2228 lysates, IC50 concentrations, 24 h. On the procedure: as §4, §5

Another data set concerns A549 spheroids. Briefly: Cytotoxicity in 3D spheroids, CellTiter-Glo 3D. The format is cell-based, human. The note with it: Homo sapiens, A549 3D spheroids, 96 h. The protocol: (§6) In the 3D structure, the gradients of gases, nutrients, and therapeutics play a role in the final cytotoxicity of a compound.
(§7) A549 and NCI-H2228 cells were seeded in ultralow attachment, U-shape plates (Corning) at a density of 800 cells/well in the tumorsphere medium consisting of DMEM/F12 medium (Sigma), fibroblast growth factor (20 ng/mL; Sigma), epidermal growth factor 2 (10 ng mL^–1; Sigma), B27 supplement (1×; Gibco), bovine serum albumin, bovine serum albumin (BSA) (1.5 mg mL^–1; Sigma). […] CellTiter-Glo 3D viability assay was used for the experiment evaluation following the manufacturer’s instructions. The bioluminescence signal, proportional to the number of living cells, was measured using the luminescence reader SPARK, and IC50 values were calculated.

A further data set relates to NCI-H2228 spheroids. The experiment in a line: Cytotoxicity in 3D spheroids, CellTiter-Glo 3D. The class given is cell-based, human. Conditions: Homo sapiens, NCI-H2228 3D spheroids, 96 h. On the procedure:
as §6, §7
In general terms: In ATP-based viability assays light output follows the ATP content of the culture.

The nature of data set [2]: Cytotoxicity in hepatocyte-like cells, sulphorhodamine B assay. The note with it: hepatocyte-like cells from human pluripotent cells. The class given is cell-based. The protocol:
as §3, §2
Background: In SRB staining, fixed cells bind dye roughly in proportion to their protein.

The subject of data set [3] is normal (noncancerous) cells MRC-5, IMR-90, hTERT-HPNE, MCF10A. Briefly: MTT, noncancerous cell lines (average, selectivity index). The class given is cell-based, human. Conditions: for IC50: Homo sapiens, average over MRC-5, IMR-90, hTERT-HPNE, MCF10A, read-out: av norm (average IC50 in noncancerous cells). The protocol:
Growth inhibition activity in cancer cell lines was compared with the activity to inhibit the proliferation of normal (noncancerous) cells, namely MRC-5, IMR-90, hTERT-HPNE, and MCF10A cells. Selectivity indexes (SI) were calculated as (IC50 in noncancerous cells)/(average IC50 in cancer cells). […] We further assessed the toxicity of several of the compounds in hepatocyte-like cells (HLC) generated from human pluripotent cells. […]

A further data set deals with MMC2. Briefly: MTT cytotoxicity in NER-deficient cells, 72 h. The format is cell-based, Chinese hamster. Conditions: for IC50: Cricetulus griseus, MMC2 (NER deficient), MTT, 72 h. The source says: The cytotoxicity assay was also employed to determine whether DNA damage might be involved in the mechanism of action of the tested compounds. The Chinese hamster ovary MMC2 cell line harbors the ERCC3/XPB mutation, which renders it deficient in nucleotide excision repair (NER), whereas the parent line CHOK1 is proficient in this repair process. Thus, the MMC2 line is often more sensitive to agents causing DNA damage, especially NER-reparable DNA damage, than CHOK1. […] Phosphorylation of H2AX is a commonly used marker of DNA damage. […]

A further data set concerns CT26 and NCI-H2228 cells. The experiment in a line: Extracellular HMGB1 (ELISA). The format is cell-based. Conditions: IC50 concentrations, 24 h. On the procedure:
The amount of HMGB1 in the medium was determined using an enzyme-linked immunosorbent assay (ELISA).
CT26 and NCI-H2228 cells were seeded in 48-well plates at a density of 5 × 10^4 cells/well and grown overnight. […] Aliquots of the supernatants were then withdrawn and processed using the HMGB1 Express ELISA kit (TECAN) according to the manufacturer’s instructions. The final absorbance, proportional to the HMGB1 amount, was read at 420 nm using a multimode SPARK reader (TECAN).
For orientation: ELISA stands for enzyme-linked immunosorbent assay.

T2 sequence (P08581 25-1390): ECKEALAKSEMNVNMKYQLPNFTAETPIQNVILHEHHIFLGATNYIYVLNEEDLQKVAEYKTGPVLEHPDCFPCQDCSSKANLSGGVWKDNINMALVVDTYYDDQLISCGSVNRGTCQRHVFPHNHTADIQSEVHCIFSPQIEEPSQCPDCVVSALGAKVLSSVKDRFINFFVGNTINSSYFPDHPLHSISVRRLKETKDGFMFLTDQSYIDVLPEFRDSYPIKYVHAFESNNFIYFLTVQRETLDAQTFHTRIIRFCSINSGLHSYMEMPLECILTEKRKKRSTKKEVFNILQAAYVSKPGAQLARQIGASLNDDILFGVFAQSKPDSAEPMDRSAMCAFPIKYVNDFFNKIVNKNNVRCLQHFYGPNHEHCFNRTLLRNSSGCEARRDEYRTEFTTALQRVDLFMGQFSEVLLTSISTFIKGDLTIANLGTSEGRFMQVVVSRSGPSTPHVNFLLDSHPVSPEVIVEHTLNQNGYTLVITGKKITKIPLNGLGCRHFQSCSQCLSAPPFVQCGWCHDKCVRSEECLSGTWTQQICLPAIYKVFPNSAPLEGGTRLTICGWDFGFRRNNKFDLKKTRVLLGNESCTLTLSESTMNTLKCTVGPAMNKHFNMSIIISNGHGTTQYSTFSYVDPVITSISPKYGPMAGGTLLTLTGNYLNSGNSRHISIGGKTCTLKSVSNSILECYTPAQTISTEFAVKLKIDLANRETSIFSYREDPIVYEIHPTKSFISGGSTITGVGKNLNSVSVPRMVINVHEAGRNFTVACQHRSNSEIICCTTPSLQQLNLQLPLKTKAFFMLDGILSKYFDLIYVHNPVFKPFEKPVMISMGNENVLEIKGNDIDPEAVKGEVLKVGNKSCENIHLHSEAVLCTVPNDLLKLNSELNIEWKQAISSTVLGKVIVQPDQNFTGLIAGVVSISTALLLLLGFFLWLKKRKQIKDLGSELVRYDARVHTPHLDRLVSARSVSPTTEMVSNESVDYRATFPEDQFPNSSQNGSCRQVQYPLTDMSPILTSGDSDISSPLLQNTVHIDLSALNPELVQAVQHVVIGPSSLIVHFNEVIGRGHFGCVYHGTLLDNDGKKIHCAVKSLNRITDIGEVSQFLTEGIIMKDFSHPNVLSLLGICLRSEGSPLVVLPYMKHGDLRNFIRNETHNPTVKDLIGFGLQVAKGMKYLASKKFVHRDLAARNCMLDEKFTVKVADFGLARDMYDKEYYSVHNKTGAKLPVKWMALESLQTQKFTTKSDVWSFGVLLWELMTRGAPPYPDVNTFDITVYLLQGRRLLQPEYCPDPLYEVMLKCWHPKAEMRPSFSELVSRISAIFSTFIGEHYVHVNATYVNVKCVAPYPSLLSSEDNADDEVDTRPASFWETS
T1 sequence (Q9HC35+Q9UM73 fused): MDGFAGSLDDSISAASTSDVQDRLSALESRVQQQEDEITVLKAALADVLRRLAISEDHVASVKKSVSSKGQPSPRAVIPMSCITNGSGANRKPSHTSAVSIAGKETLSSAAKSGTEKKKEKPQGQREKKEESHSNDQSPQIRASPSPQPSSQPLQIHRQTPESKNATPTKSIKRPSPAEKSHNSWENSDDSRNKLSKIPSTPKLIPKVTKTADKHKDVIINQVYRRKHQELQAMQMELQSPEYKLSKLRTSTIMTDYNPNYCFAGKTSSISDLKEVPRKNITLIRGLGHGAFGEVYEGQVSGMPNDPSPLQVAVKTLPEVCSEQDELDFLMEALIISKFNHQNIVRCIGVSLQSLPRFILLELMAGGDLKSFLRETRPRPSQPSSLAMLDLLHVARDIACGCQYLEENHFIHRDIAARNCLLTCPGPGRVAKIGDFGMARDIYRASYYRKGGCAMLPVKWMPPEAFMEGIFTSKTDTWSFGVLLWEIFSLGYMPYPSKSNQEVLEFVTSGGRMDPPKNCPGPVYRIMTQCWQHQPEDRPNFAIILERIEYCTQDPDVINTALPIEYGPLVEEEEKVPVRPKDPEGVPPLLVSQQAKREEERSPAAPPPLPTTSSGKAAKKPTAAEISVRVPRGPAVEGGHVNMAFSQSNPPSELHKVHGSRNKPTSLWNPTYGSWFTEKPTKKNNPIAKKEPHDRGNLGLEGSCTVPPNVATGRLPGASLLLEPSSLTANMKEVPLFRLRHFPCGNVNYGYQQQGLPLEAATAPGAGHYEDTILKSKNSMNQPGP

In the case of `Cc1cc(Nc2ncc(Cl)c(Nc3ccccc3S(=O)(=O)C(C)C)n2)c(OC(C)C)cc1C1CCNCC1` [compound 5, ceritinib], the concentration for half-maximal inhibition (IC50) worked out at 900 ± 200 nM in the data set on HCT116; 1100 nM in [1]; 1200 ± 300 nM in the data set with CT26 cell line; 1500 ± 300 nM in the data set on RD; 3700 ± 400 nM in the data set on IMR-90; 3400 ± 900 nM in the data set on MCF10A. The IC50 with MRC-5 turned out to be 2200 ± 500 nM; with hTERT-HPNE, 4100 ± 200 nM; in the data set on MDA-MB-231 it was 1400 ± 900 nM; in the data set on CHOK1, 1400 ± 600 nM; in the data set on U87-MG it was 1100 ± 1000 nM; in the data set on NCI-H2228 it was 510 ± 40 nM. The half-maximal inhibitory concentration (IC50) in the data set on A549 amounted to 900 ± 200 nM; in the data set with A549 spheroids, 2300 ± 800 nM; in the data set with NCI-H2228 spheroids it was 750 ± 90 nM; in data set [2] it was 8000 ± 3000 nM; in data set [3], 3400 nM; in the data set with MMC2, 1300 ± 300 nM. Moreover, the “phosphorylation of ALK” value at ALK is “inhibit the phosphorylation”. Besides, the “phosphorylation of MET” value on MET was “inhibit the phosphorylation”. The “SI, selectivity index” value in [3] (IC50(normal cells)/averageIC50(cancer cells)) worked out at 3.0. Besides, the “Index F” value with MMC2 (IC50(CHOK1)/IC50(MMC2)) amounted to 1.08.
`COc1cccc2c1C(=O)c1c(O)c3c(c(O)c1C2=O)C[C@@](O)(C(=O)CO)C[C@@H]3O[C@H]1C[C@H](N)[C@H](O)[C@H](C)O1` [DOX, doxorubicin]: in the data set on CT26 cell line, the concentration for half-maximal inhibition (IC50) worked out at 2100 ± 300 nM. Besides, the “HMGB1 externalization relative to nontreated control” value with CT26 and NCI-H2228 cells is listed as “highest increase”.
As to `C[C@@H](Oc1cc(-c2cnn(C3CCNCC3)c2)cnc1N)c1c(Cl)ccc(F)c1Cl` [compound 1, crizotinib], the 50% inhibitory concentration (IC50) in the data set with HCT116 amounted to 1900 ± 500 nM; in data set [1], 1700 nM; in the data set on CT26 cell line it was 1800 ± 400 nM; with RD it was 1400 ± 400 nM; in the data set with IMR-90, 7600 ± 900 nM; in the data set on MCF10A it was 6400 ± 700 nM. Moreover, the IC50 in the data set on MRC-5 stood at 4300 ± 300 nM; in the data set with hTERT-HPNE it was 6900 ± 800 nM; in the data set with MDA-MB-231, 1200 ± 300 nM; in the data set with CHOK1, 1300 ± 500 nM; with U87-MG, 3900 ± 500 nM; in the data set on NCI-H2228, 820 ± 70 nM. The concentration for half-maximal inhibition (IC50) in the data set on A549 amounted to 1000 ± 200 nM; in the data set with A549 spheroids, 3000 ± 1000 nM; with NCI-H2228 spheroids, 1500 ± 300 nM; in data set [2], 9000 ± 3000 nM; in data set [3] it was 6300 nM; in the data set with MMC2, 1400 ± 300 nM.
